Measured values published in a melting point compilation (Tetko et al.; mined from patent text by program, amines drawn as free bases though some values may be those of a salt).

melting point [°C] | SMILES
158 to 161 | Cc1c(-c2ccccc2)oc2c(CS(=O)(=O)CCCl)cccc2c1=O
173 to 175 | CC(=O)N[C@H](Cc1ccc(C#N)cc1)C(=O)O
122 to 124 | CC(C(=O)O)c1ccc2oc(Cc3c(Cl)cccc3Cl)nc2c1 (configuration not stated)
204 | CS(=O)(=O)C(=C1CN(C(c2ccccc2)c2ccccc2)C1)c1ccccc1Cl
> 330 | COc1cc(O)nc2cc(-c3cc(C)c(O)c(C)c3)[nH]c(=O)c12
195 to 196 | CCCC(CCC)n1c(CC)nc2c1c(=O)n(C)c(=O)n2-c1c(C)cc(C)cc1C
122 to 125 | CC(O)(C#Cc1ccc(S(=O)(=O)c2ccncc2)cc1)C(F)(F)F (configuration not stated)
136 to 137 | C[C@H](CO)Nc1cc(-n2cccn2)nc(-c2cccs2)n1
230 to 232 | O=[N+]([O-])c1ccc(I)c(-c2cc([N+](=O)[O-])ccc2I)c1
122 to 124 | C=CCNc1nc(SC)nc2cc(OC)c(OC)cc12
162 to 165 | Cc1cc(C=C2SCNC2=O)cc(C(C)(C)C)c1O
206 to 207 | COc1cc(NC(=O)c2ccccc2Cl)ccc1C(=O)N1CCCC(OCCNC(N)=O)c2cc(Cl)ccc21 (configuration not stated)
148 to 150 | O=c1cc(-c2ccncc2)nc2n1CCCCC2
145 to 147 | CC(=O)NC[C@@H]1C[C@H]1c1cccc2nn(C)cc12 (relative stereo)
115 to 120 | CC(c1ccccc1)C(Oc1c(Br)cc(-c2c3ccccc3c(Br)c3sc4ccccc4c23)cc1Br)C(=O)O (configuration not stated)
94 to 95 | CC(=O)OCNC(=O)c1cc(Cl)nc(Cl)c1
111 to 113 | O=c1ccccn1[C@@H]1c2cc(C(F)(F)C(F)(F)C(F)(F)F)ccc2OC(CF)(CF)[C@H]1O (relative stereo)
159 to 161 | COc1ccc2c(c1)C[C@@H](C(N)=O)CC2
123 to 128 | CC(C)Cc1ccc(C(C)C(=O)ON(C(N)=O)C(C)c2cc3ccccc3s2)cc1 (configuration not stated)
123 to 124 | ON=C1c2ccccc2CCC1Cc1ccccc1 (configuration not stated)
170 to 172 | CSCCC(S)C(=O)NC1(C(=O)NC(Cc2ccc(-c3ccsc3)nc2)C(=O)O)CCCC1 (configuration not stated)

melting point [°C] | SMILES
85 to 93 | ON=CCCc1ccccc1
49.5 to 51 | Cc1ccc(C(=S)CCCCCC#N)cc1
77 to 82 | C1=CCCCCN(CCc2nccc3c2[nH]c2ccccc23)CCCC1
102 | CC(C)=NOCC(C)OC(=O)COc1ccc(Cl)c2cccnc12 (configuration not stated)
132 to 134 | O=C(O)Cc1cccc(Cc2nc3c(F)c(F)cc(F)c3s2)c1
95 to 97 | O=S(=O)(c1ccc(Br)cc1)N1C=CC=NC=C1
82 to 90 | CCOC(=O)C1C(=O)N(CC)c2cc3cc(C)oc3cc21 (configuration not stated)
100 | Cc1cc(-n2ccnc2)c2cccc(OCc3c(Cl)ccc(S(=O)(=O)N4CCC[C@H]4C(=O)NCCN4CCOCC4)c3Cl)c2n1
92 to 94 | COCCc1ccc(OCC(O)C(C)(C)[N+](=O)[O-])cc1 (configuration not stated)
115 to 116 | COC(=O)Cn1c(C)ccc(NC(=O)OCc2ccccc2)c1=O
148 to 151 | Cc1nn(C)c(C)c1C(=O)Nc1ccc(C(C(F)(F)F)C(F)(F)F)c(CC(C)C)c1
118 to 120 | O=CN(O)C(COCc1ccccc1)CS(=O)(=O)N1CCN(c2cc(Cl)ncn2)CC1 (configuration not stated)
161 to 167 | COc1cccc(CCNC(=S)Nc2nc3ccccc3[nH]2)c1
260 to 261 | Cc1cccc(Nc2n[nH]c(N=CN(C)C)c2C#N)c1
> 300 | Cc1ncn(-c2nccc3[nH]c(=O)ccc23)n1
134 to 135 | CCCc1ccc(C(=O)O)c2ccccc12
66 | COC(C)(CC(=O)NC1CCCCC1)OC
160 to 162 | C[Si]1(C(CN)CC(=O)O)CCCCC1 (configuration not stated)
91 to 93 | CN(Cc1ccccc1)CC1CCSc2[nH]c3ccccc3c21 (configuration not stated)
197 to 199 | O=C(NC1CC1)c1ccc(-c2ccc3nnn(Cc4ccc5ncccc5c4)c3n2)cc1Cl

Continued, molecule first:

SMILES | melting point [°C]
N#CCN(CC#N)CCN(CC#N)CC#N | 131 to 132
CC(C)(C)OC(=O)NC(CNC(=O)Nc1ccccc1)C(=O)OCc1ccccc1 (configuration not stated) | 48 to 50
COCCNC(=O)c1cccc(-c2cccc3cc(Cc4cc(Cl)cc(Cl)c4)sc23)c1 | 109 to 110
CC(=O)NC=Cc1ccc(OCC(O)CNC(C)C)cc1 (configuration not stated) | 144 to 146
CC(c1oc2ccccc2c(=O)c1-c1cccc(F)c1)n1cnc2c(N)ncnc21 (configuration not stated) | 155 to 158
COC(=O)C1(S(=O)(=O)N2CC=C(c3ccc(-c4ccccc4)c(C)c3)CC2)CCOCC1 | 117 to 119
O=C(Nc1c(C(O)(C(F)(F)F)C(F)(F)F)ccc2ccccc12)c1ccccc1Cl | 209 to 211
COc1cc(C(=O)O)cc2c1C(=O)c1ccccc1CC2 | 222 to 227
CSC1=C(c2ccc(O)cc2)C(=O)c2cc(O)ccc21 | 90 to 92
O=C1CC(C2CCCC2)CN1 (configuration not stated) | 117 to 119
COc1cc(OC)c2c(=O)oc(=O)[nH]c2c1 | 287 to 293
CC(Oc1ncn(-c2cccc(Cl)c2)n1)C(N)=O (configuration not stated) | 143 to 145
CC(C)(C)n1ncc(OCc2ccc(OCC(F)(F)C(F)F)nc2)c(Cl)c1=O | 112 to 118
CCOC(=O)c1c(CCl)nc2sc(C)c(C)c2c1-c1ccc(OC)c(OC)c1 | 162 to 163
COc1cc(-c2nc(C)ncc2Br)c(F)cc1Cl | 106 to 107
CC(C)(C)OC(=O)Nc1ccc(-c2ccccc2F)cc1[N+](=O)[O-] | 131 to 133
COC(=O)c1ccccc1-c1cc(-c2ccccn2)on1 | 54 to 57
CC(CS(=O)(=O)c1ccccc1)C1CCC2C3CC=C4CC(O)CC(O)C4(C)C3CCC12C (configuration not stated) | 214
O=C(O)c1ccccc1CCc1n[nH]c2c1c(=O)n(-c1ccccc1)c1ncccc21 | 302 to 308
CCCCc1ccc(-c2ccc(CCc3ccc(OC)cc3)cc2)c(F)c1 | 49
CCOC(=O)COc1ccc(N2CCN(C(=O)OC(C)(C)C)CC2)cc1C=O | 93 to 94

SMILES | melting point [°C]
CCCOc1ccc(F)c2c1c(CCN(C)C)cn2CC | 49 to 50
ClCCCCn1c2c(c3ccccc31)CCSc1ccccc1-2 | 75
COc1ccccc1N1CCN(CCCCOc2ccc(-c3cn4ccccc4n3)cc2)CC1 | 144 to 145
c1cncc(-c2cc3ccccc3[nH]2)c1 | 176 to 177
CC(c1ccncc1Cl)C(O)(Cn1cncn1)c1ccc(F)cc1F (configuration not stated) | 182 to 184
CN(CCNc1ccc2c3c(c4c(OCc5ccccc5)ccc(OCc5ccccc5)c4cc13)NN2CCN(CCO)Cc1ccccc1)Cc1ccccc1 | 147 to 149
O=C(Nc1cc(-c2ccnc3c(C(=O)c4cccs4)cnn23)ccc1Cl)c1ccccc1 | 217 to 218
NC(=O)c1ccccc1N1CCc2cc(Br)ccc21 | 120 to 122
O=C1c2ccccc2C(=O)N1c1ccc(Cl)c2c1CC(CO)O2 (configuration not stated) | 181 to 183
CNC(=O)Cc1ccccc1[N+](=O)[O-] | 147
CCOC(=O)C(NC(=O)OC(C)(C)C)c1csc(NC(=O)CCl)n1 (configuration not stated) | 192 to 193
Cc1cccc2c1CCn1cc(-c3ccccc3)nc1C2OC1CCN(C)CC1 (configuration not stated) | 71
CCOP(=O)(CCCOc1ccc(C(=O)O)cc1)OCC | 107 to 110
Cc1ccc2c(c1)c1c(n2CCCl)C(=O)CCC1 | 108
CCNC(=O)N1CCc2[nH]cnc2C1CCC1CCCCC1 (configuration not stated) | 210 to 212
Clc1ccc(C(c2ccccc2)c2c(Cl)ncnc2Cl)c(Cl)c1 (configuration not stated) | 138 to 139
CC(CCCC(=NO)C(=O)O)(c1ccc(OCc2ccc3ccccc3n2)cc1)c1ccc(OCc2ccc3ccccc3n2)cc1 | 78 to 80
CC(Cc1ccccc1)C1CC=C2C3=C(CCC21C)C1(C)CCC(O)C(C)(C)C1CC3 (configuration not stated) | 179 to 186
O=C(Nc1cccc(O)c1)C(F)(F)F | 133 to 135
O=C(NCC(=O)N(O)CCCP(=O)(O)O)OCc1ccccc1 | 101 to 105
COC(=O)C1(C(C[N+](=O)[O-])c2ccccc2)CCc2ccccc2C1=O (configuration not stated) | 101 to 103

SMILES | melting point [°C]
CNC(=O)c1ccccc1Nc1nc(Nc2ccc3c(c2)CNC(=O)CCN3)ncc1Cl | 267 to 268
NC(=O)[C@@H]1CCCc2cc(Sc3ccccc3)cc(F)c21 | 167 to 168
Cc1c(SCCCSc2ccc3ncc([N+](=O)[O-])n3n2)ccnc1CCl | 155 to 156
N[C@@H](CCC(=O)O)C(=O)N[C@@H](Cc1ccccc1)C(=O)O | 147 to 149
O=C1CCCc2cc(NS(=O)(=O)c3ccccc3)ccc21 | 164 to 165
CCOC(=O)C1=C(COCCN2CCN(c3nc(N)n(C)n3)CC2)NC(C)=C(C(=O)OC)C1c1ccccc1Cl (configuration not stated) | 92 to 96
CC(C)S(=O)(=O)NC(=O)c1cccc(N)c1 | 190 to 193
C=CCn1c(C)nc(N2CCc3ccccc3CC2)c(C#N)c1=O | 141 to 144
CC(=NO)c1ccc(N)c(C(=NO)c2ccccc2F)c1 | 165
O=C1OC(=Cc2c[nH]c3ccccc23)C(=O)N1Cc1cc(C(F)(F)F)cc(C(F)(F)F)c1 | 145 to 146
CC(C)OC(=O)c1cc(F)c(Cl)cc1Cl | 35
CCN(CC)C(=O)c1nc(-c2ccccc2)c2ccccc2n1 | 101
CN1CC(=O)N(SC(Cl)(Cl)Cl)C1=O | 110 to 112
CCOC(=O)CN1C(=O)c2cccc3cccc(c23)C1=O | 160 to 162
CCOC(=O)CCCOc1ccc(-c2ccc(OCC)cc2)cc1C=O | 69 to 70
O=C(O)Cc1ccc(C(=O)C2CCCCC2)cc1 | 94 to 95.5
O=C(Oc1ccc(F)cc1)Oc1ccc(F)cc1 | 122 to 123
OCCN1CCN(Cc2nnc3n2-c2ccc(Cl)cc2C(c2ccccc2)=NC3)CC1 | 113 to 118
CC(=O)c1ccc(OCCCOc2cc(N)c(C)cc2Cl)c(CCC(F)(F)F)c1O | 111 to 113
